# Assay results published in US4481201A, “Pharmaceutical composition containing N,N^3 -di-(β-bromopropionyl)-N^1,N^2 -dispirotripiperazinium dichloride” (Vsesojuzny Nauchno-Issledovatelsky Khimoko-Farmasevtichesky …, priority 1981, dated 1984).
# Tests used:
# sarcoma 37 = assay: Growth of graft sarcoma 37 in mice; format: in vivo, noninbred white mice; details: mice, at MTD (dose not given)
# From the text: (§1) The antitumor activity has been studied on white rats weighing 110-130 g, as well as on white noninbred and inbred mice weighing 17-21 g with ligated tumors. The treatment is started 5-7 days transplanting of solid tumors and the following day after the transplanting of leukotic strains. Use has been made of the following transplantable strains of the tumors:
# (§2) (2) noninbred white mice: sarcoma 180, sarcoma AK, sarcoma 37, carcinoma HK;
# (§3) The compounds of the general formula (I), wherein X represents Cl^- (compound 1), Br^- (compound 2) are well-soluble in an isotonic solution of sodium chloride and they are administered intraperitoneally. The doses of the compounds have been calculated in mg per kg of the animal bodyweight.
# transplantable leukemia = assay: Activity relative to leukoses of inbred mice (overall); format: in vivo
# From the text: (2) activity of the compounds relative to leukoses of inbred mice;
# as §1
# (§4) (3) inbred mice: leukemia La, leukemia L1210 and P-388.
# (§5) The activity of compounds relative to leukosis has been assessed by the life span (It) of treated animals as compared to the control ones. It --index of suppression of leukosis development is calculated by the formula: [formula]
# sarcoma AK = assay: Growth of graft sarcoma AK in mice; format: in vivo, noninbred white mice; details: mice, at MTD (dose not given)
# From the text: as §1, §2, §3
# sarcoma 536 = assay: Growth of graft sarcoma 536 in rats; format: in vivo
# From the text: as §1
# (§6) (1) rats: Ienssen's sarcoma, sarcoma 45, sarcoma M-1, sarcoma 536;
# as §3
# [1] = Toxicity on single and repeated administration to mice; format: in vivo
# Experimental: (3) acute toxicity of the compounds upon a single and repeated administration to white noninbred mice places into standard cages with 8 animals in each.
# In the investigation of toxic properties of the compounds according to the present invention there has been determined the absolutely lethal dose (DL95), average lethal dose (DL50) and MTD. For compounds 1 and 2 there were determined DL95 and DL50 on healthy white mice with the body mass of 18-21 g at a single and repeated (once a day, daily for 7 days) intraperitoneal administration.
# sarcoma 180 = assay: Growth of graft sarcoma 180 in mice; format: in vivo, noninbred white mice; details: mice, at MTD (dose not given)
# From the text: as §1, §2, §3
# Solubility = format: physicochemical
# Experimental: as §3
# To a mixture of 3 g of N^1,N^2 -dispirotripiperazinium dichloride, 1.5 g of lithium hydroxide, 1 ml of water and 10 ml of ether a solution of 5.2 g of β-bromopropionic acid chlorid in 5 ml of ether is added under vigorous stirring and at a temperature of 5° to 10° C. The reaction mass is stirred for 2 hours at the temperature of 15° C. The residue is filtered off, dissolved in 10 ml of water; the resulting aqueous solution is poured in 100 ml of methanol.
# Ienssen's sarcoma = assay: Growth of graft Ienssen sarcoma in rats; format: in vivo
# From the text: as §1, §6, §3
# sarcoma 45 = assay: Growth of graft sarcoma 45 in rats; format: in vivo; details: for Change in the animal body weight, test / It, % tumor growth suppression index: rats
# From the text: as §1, §6, §3
# sarcoma M-1 = assay: Growth of graft sarcoma M-1 in rats; format: in vivo
# From the text: as §1, §6, §3
# leukemia La = assay: Life span of mice with transplantable leukemia La; format: in vivo, inbred mice; details: leukemia La, MTD
# From the text: as §1, §4, §5
# [2] = rats, 81 mg/kg intraperitoneally, 6 injections
# [3] = mice, single intraperitoneal administration
# [4] = rats, 21 mg/kg intraperitoneally, 44 injections
# [5] = rats, 39 mg/kg intraperitoneally, 5 injections
# [6] = rats, 86 mg/kg intraperitoneally, 4 injections
# [7] = rats, 88 mg/kg intraperitoneally, 5 injections
# [8] = rats, 2,1 mg/kg intraperitoneally, 7 injections
# [9] = rats, 4,2 mg/kg intraperitoneally, 7 injections
# [10] = 44 mg/kg intraperitoneally, 7 injections
# [11] = 83 mg/kg intraperitoneally, 7 injections
smiles,measurement,setting,value
O=C(CCBr)N1CC[N+]2(CC1)CC[N+]1(CCN(C(=O)CCBr)CC1)CC2 [Compound 2],suppression of sarcoma 37,sarcoma 37,60%
same,effect on transplantable leukemia in mice,transplantable leukemia,clearly pronounced antileukotic effect
same,suppression of sarcoma AK,sarcoma AK,81%
same,Maximum tolerable dose (MTD),"sarcoma 536; rats with sarcoma 536, repeated intraperitoneal administration",133 mg/kg
same,"Change in the animal body weight, test",sarcoma 536; [2],-15 g
same,"It, % tumor growth suppression index",sarcoma 536; [2],+52%
same,"Change in the animal body weight, test","sarcoma 536; rats, 133 mg/kg intraperitoneally (MTD), 5 injections",-14 g
same,DL50 (average lethal dose),"[1]; mice, repeated intraperitoneal administration (once a day, daily for 7 days)",150 mg/kg
same,DL50 (average lethal dose),[1]; [3],"1,150 mg/kg"
same,DL95 (absolutely lethal dose),[1]; [3],"1,250 mg/kg"
same,MTD,[1]; repeated intraperitoneal administration,125 mg/kg
same,suppression of sarcoma 180,sarcoma 180,52%
same,solubility in an isotonic solution of sodium chloride,Solubility,well-soluble
same,Ch/T chemotherapeutical index (ratio of MTD to minimum effective dose),Ienssen's sarcoma; Ienssen sarcoma,50
same,Maximum tolerable dose (MTD),"Ienssen's sarcoma; rats with Ienssen sarcoma, repeated intraperitoneal administration",149 mg/kg
same,"Change in the animal body weight, test","Ienssen's sarcoma; rats, 8 mg/kg intraperitoneally, 7 injections",+21 g
same,"Change in the animal body weight, test",Ienssen's sarcoma; [4],+34 g
same,"It, % tumor growth suppression index",Ienssen's sarcoma; [4],+90%
same,"Change in the animal body weight, test",Ienssen's sarcoma; [5],+14 g
same,"It, % tumor growth suppression index",Ienssen's sarcoma; [5],+99%
same,"Change in the animal body weight, test",Ienssen's sarcoma; [6],+1 g
same,"It, % tumor growth suppression index",Ienssen's sarcoma; [6],+99%
same,"Change in the animal body weight, test",Ienssen's sarcoma; [7],+1 g
same,"It, % tumor growth suppression index",Ienssen's sarcoma; [7],+99%
same,"Change in the animal body weight, test","Ienssen's sarcoma; rats, 149 mg/kg intraperitoneally (MTD), 5 injections",-30 g
same,"Change in the animal body weight, test",Ienssen's sarcoma; [8],+5 g
same,"It, % tumor growth suppression index",Ienssen's sarcoma; [8],+46%
same,"Change in the animal body weight, test",Ienssen's sarcoma; [9],+6 g
same,"It, % tumor growth suppression index",Ienssen's sarcoma; [9],+35%
same,Maximum tolerable dose (MTD),"sarcoma 45; rats with sarcoma 45, repeated intraperitoneal administration",95 mg/kg
same,"Change in the animal body weight, test","sarcoma 45; 20 mg/kg intraperitoneally, 7 injections",-12 g
same,"It, % tumor growth suppression index","sarcoma 45; 20 mg/kg intraperitoneally, 7 injections, 20 mg/kg",+66%
same,"Change in the animal body weight, test",sarcoma 45; [10],+4 g
same,"It, % tumor growth suppression index",sarcoma 45; [10],+96%
same,"Change in the animal body weight, test",sarcoma 45; [11],+6 g
same,"It, % tumor growth suppression index",sarcoma 45; [11],+96%
same,"Change in the animal body weight, test","sarcoma 45; 95 mg/kg intraperitoneally (MTD), 6 injections",-6 g
same,Maximum tolerable dose (MTD),"sarcoma M-1; rats with sarcoma M-1, repeated intraperitoneal administration",95 mg/kg
same,"Change in the animal body weight, test","sarcoma M-1; rats, 95 mg/kg intraperitoneally (MTD), 6 injections",+8 g
same,extension of life span of treated mice as compared to the control,leukemia La,2 times
